{"source": "paper PMC3401626", "about": "(Chemmedchem, 2011)", "key": {"[1]": {"molecular_target": "T1, Eis (Mycobacterium tuberculosis, UniProt P9WFK7)", "T1 sequence (P9WFK7 whole entry)": "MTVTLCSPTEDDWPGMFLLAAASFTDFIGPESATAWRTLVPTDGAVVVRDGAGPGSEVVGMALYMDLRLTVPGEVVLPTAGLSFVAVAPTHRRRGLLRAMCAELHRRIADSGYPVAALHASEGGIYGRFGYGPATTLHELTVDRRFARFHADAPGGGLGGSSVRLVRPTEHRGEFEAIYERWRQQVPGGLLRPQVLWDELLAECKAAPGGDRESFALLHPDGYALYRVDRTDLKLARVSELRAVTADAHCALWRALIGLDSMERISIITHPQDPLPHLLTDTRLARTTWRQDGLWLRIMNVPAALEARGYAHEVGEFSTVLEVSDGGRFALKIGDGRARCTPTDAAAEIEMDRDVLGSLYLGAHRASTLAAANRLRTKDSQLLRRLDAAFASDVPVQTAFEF", "assay": "Eis inhibition, UV-Vis DTNB assay of aminoglycoside acetylation", "type": "biochemical", "details": "at least 3 trials"}, "[2]": {"molecular_target": "T1, Eis", "assay": "Mode of inhibition of Eis", "type": "biochemical", "details": "for Mode of inhibition against NEO: varying NEO 50-200 μM"}, "[3]": {"molecular_target": "AAC(2′)-Ic (Mycobacterium tuberculosis, UniProt P9WQG9)", "sequence (P9WQG9 whole entry)": "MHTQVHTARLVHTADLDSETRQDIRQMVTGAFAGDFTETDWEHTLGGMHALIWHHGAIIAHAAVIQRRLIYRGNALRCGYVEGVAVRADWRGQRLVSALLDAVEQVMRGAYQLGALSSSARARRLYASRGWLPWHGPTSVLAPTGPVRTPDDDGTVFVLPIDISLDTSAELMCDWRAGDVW", "assay": "Inhibitors' selectivity: AAC", "type": "biochemical, Mtb", "details": "inhibitor 200 to 0.2 μM"}, "[4]": {"molecular_target": "T2, AAC(3)-IV (Salmonella sp, UniProt P08988)", "T2 sequence (P08988 with tags, fused parts or gaps limits assumed)": "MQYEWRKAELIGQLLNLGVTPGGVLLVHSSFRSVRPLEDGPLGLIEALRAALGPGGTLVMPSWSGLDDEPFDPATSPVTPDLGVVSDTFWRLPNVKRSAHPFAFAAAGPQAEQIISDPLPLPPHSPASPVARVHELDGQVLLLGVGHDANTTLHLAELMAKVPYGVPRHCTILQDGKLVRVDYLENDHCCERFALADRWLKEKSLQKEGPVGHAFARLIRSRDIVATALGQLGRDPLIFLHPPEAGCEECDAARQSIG", "assay": "Inhibitors' selectivity: AAC", "type": "biochemical, Escherichia coli", "details": "inhibitor 200 to 0.2 μM; enzyme 0.25 μM"}, "[5]": {"molecular_target": "AAC(6′)/APH(2″)-Ia (Staphylococcus aureus, UniProt P0A0C1)", "sequence (P0A0C1 whole entry)": "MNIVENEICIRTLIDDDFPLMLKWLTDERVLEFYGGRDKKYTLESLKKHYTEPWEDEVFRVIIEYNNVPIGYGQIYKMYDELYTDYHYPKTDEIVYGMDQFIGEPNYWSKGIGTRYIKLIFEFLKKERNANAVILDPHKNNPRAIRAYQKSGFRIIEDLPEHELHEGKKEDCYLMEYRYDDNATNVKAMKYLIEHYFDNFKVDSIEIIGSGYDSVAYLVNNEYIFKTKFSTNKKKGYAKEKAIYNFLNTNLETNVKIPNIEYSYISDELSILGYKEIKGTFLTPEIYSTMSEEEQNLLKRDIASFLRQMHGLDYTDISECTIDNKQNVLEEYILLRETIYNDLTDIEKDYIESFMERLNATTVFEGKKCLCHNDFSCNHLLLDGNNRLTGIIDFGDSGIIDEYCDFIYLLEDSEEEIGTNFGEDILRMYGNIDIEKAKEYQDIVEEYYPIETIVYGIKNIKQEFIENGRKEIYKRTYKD", "assay": "Inhibitors' selectivity: AAC", "type": "biochemical", "details": "inhibitor 200 to 0.2 μM; enzyme 0.25 μM"}, "[6]": {"details": "cited from earlier work"}}, "data": [{"molecule": "[H]/N=C(\\N/C(=N/[H])NCCCCCCNC(=N)NC(=N)Nc1ccc(Cl)cc1)Nc1ccc(Cl)cc1", "note": "[Compound 6, chlorhexidine]", "values": [{"measurement": "IC50", "setting": "[1]; Eis inhibition constants (IC50) using AMK, substrate AMK", "result": "0.321 ± 0.058", "unit": "µM"}, {"measurement": "IC50", "setting": "[1]; Eis inhibition constants (IC50) using KAN, substrate KAN", "result": "0.666 ± 0.193", "unit": "µM"}, {"measurement": "Mode of inhibition against AMK", "setting": "[2]; substrate AMK, listed as chlorhexidine (6)", "result": "AG-competitive inhibitor"}, {"measurement": "Mode of inhibition against KAN", "setting": "[2]; substrate KAN, listed as chlorhexidine (6)", "result": "AG-competitive inhibitor"}, {"measurement": "Mode of inhibition against NEO", "setting": "[2]", "result": "competitive inhibitor"}, {"measurement": "Mode of inhibition against NEO", "setting": "[2]; listed as chlorhexidine (6)", "result": "AG-competitive inhibitor"}, {"measurement": "inhibition of AAC(2′)-Ic", "setting": "[3]", "result": "no significant inhibition"}, {"measurement": "inhibition of AAC(3)-IV", "setting": "[4]", "result": "no significant inhibition"}, {"measurement": "inhibition of AAC(6′)/APH(2″)", "setting": "[5]", "result": "no significant inhibition"}, {"measurement": "toxic effects on pulmonary tissues", "setting": "[6]", "result": "toxic effects on pulmonary tissues"}]}]}
